Experimental data as given in patent US6060516A, “N^1 -propargylhydrazines, N^2 -propargylhydrazines and their analogs for the treatment of depression, anxiety and neurodegeneration” (CV Technologies, Inc., priority 1998, dated 2000).

What was measured:
[1] = biological target: T1, rat brain monoamine oxidase-A (Rattus norvegicus, UniProt P21396); assay: Monoamine oxidase-A inhibiting activity in vitro (radiochemical, 5-hydroxytryptamine substrate, rat brain homogenate); type: biochemical; conditions: for inhibition at 100 µM: 1 × 10^-4 M; for inhibition at 10 µM: 1 × 10^-5 M; for inhibition at 1 µM: 1 × 10^-6 M; for inhibition at 0.1 µM: 1 × 10^-7 M; for inhibition at 0.01 µM: 1 × 10^-8 M
T1 construct: appropriately diluted homogenates of rat brain or liver; from tissue; host or cells: rat brain or liver homogenate
T1 sequence (P21396 1-526): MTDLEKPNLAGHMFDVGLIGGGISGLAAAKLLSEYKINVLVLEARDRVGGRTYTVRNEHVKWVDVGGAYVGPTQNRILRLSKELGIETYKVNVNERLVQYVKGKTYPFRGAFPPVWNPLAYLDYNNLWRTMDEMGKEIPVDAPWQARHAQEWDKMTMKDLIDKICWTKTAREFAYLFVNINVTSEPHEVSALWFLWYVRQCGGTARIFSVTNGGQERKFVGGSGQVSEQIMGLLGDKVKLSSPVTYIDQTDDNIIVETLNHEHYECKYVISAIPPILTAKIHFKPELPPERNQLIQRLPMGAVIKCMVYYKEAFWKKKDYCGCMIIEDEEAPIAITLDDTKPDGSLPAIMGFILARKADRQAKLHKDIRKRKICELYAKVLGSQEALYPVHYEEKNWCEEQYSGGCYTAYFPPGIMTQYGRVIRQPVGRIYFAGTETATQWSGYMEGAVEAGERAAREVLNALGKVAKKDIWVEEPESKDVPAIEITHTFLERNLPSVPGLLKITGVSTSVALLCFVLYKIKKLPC
Description: Radiolabelled 5-hydroxytryptamine was used as the substrate for monoamine oxidase-A. Various concentrations of the compounds were incubated in appropriately diluted homogenates of rat brain or liver in a 0.2 M potassium phosphate buffer. Incubations proceeded at 37° C. for 10 minutes. Incubation was terminated by the addition of acid and the radiolabelled product (5-hydroxyindoleacetic acid) was extracted and quantified by liquid scintillation counting procedures. Incubations were done in triplicate and incubations containing phenelzine were included for comparison. The percent inhibition of monoamine oxidase-A activity compared to controls without the compounds of the present invention was calculated.

[2] = system: rat brain and liver monoamine oxidase-A; assay: Monoamine oxidase-A inhibiting activity ex vivo; type: in vivo
Description: Radiolabelled 5-hydroxytryptamine was used as a substrate for monoamine oxidase-A. The compounds of interest were either injected intraperitonealy in DMSO or administered by gavage in water for various periods. The animals were killed by decapitation and the brains and livers immediately removed and frozen until assayed for monoamine oxidase-A activity. Tissues were homogenized and appropriately diluted in buffer prior to incubation. Incubations proceeded at 37° C. for 10 minutes. Incubation was terminated by the addition of acid and the radiolabelled product (5-hydroxyindoleacetaldehyde and 5-hydroxyindoleacetic acid) was extracted and quantified by liquid scintillation counting procedures. Incubations were done in triplicate and incubations containing phenelzine were included for comparison. The percent inhibition of monoamine oxidase-A activity compared to controls containing no drug was calculated.
Values are the mean ± the standard error based on (n) determinations.
Oral doses were administered as 75 μmol/kg on day 1, 75 μmol/kg on
day 2 and the animals were killed 5 hours later.

[3] = biological target: T2, rat brain monoamine oxidase-B (Rattus norvegicus, UniProt P19643); assay: Monoamine oxidase-B inhibiting activity in vitro (radiochemical, β-phenylethylamine substrate, rat brain homogenate); type: biochemical; conditions: for inhibition at 100 µM: 1 × 10^-4 M; for inhibition at 10 µM: 1 × 10^-5 M; for inhibition at 1 µM: 1 × 10^-6 M; for inhibition at 0.1 µM: 1 × 10^-7 M; for inhibition at 0.01 µM: 1 × 10^-8 M
T2 construct: appropriately diluted homogenates of rat brain or liver; from tissue; host or cells: rat brain or liver homogenate
T2 sequence (P19643 1-520): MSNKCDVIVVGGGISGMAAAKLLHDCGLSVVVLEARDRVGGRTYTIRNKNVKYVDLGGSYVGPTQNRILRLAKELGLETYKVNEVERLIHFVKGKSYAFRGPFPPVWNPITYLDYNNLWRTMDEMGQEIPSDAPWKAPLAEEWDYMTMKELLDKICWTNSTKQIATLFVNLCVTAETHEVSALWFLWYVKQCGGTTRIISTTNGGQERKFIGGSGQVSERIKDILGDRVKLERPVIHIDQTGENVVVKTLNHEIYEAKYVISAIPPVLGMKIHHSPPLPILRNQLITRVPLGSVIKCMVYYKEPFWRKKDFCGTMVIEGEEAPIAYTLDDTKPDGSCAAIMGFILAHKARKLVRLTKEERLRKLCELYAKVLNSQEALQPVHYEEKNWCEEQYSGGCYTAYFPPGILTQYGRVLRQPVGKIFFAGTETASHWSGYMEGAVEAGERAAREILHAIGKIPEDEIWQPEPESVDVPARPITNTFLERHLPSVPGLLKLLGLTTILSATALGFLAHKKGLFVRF
Description: Radiolabelled β-phenylethylamine was employed as a substrate for monoamine oxidase-B. Various concentrations of the compounds of interest were incubated in appropriately diluted homogenates of rat brain or liver in a 0.2 M potassium phosphate buffer. Incubations proceeded at 37° C. for 10 minutes. Incubation was terminated by the addition of acid and the radiolabelled product (phenylacetaldehyde and phenylacetic acid) was extracted and quantified by liquid scintillation counting procedures. Incubations were done in triplicate and incubations containing phenelzine were included for comparison. The percent inhibition of monoamine oxidase-B activity compared to controls containing no drug was calculated.

[4] = system: valine, alanine and gamma-aminobutyric acid (GABA) concentrations in rat brain; assay: Brain valine, alanine and gamma-aminobutyric acid (GABA) concentrations; type: in vivo; conditions: for GABA / Valine: 150 μmol/kg, 5 hr, ip; for GABA concentrations: doses as high as 150 μmol/kg; for GABA concentrations / elevation of alanine: in words
Description: Effects of various doses of CVT-P040, CVT-P041 and phenelzine on the concentrations of some brain amino acids were evaluated by examining concentrations of gamma-aminobutyric acid (GABA) 5 hours after the injection of the drug. Briefly, rats were injected with CVT-P040 ([…]), vehicle, or phenelzine (150 μmol/kg) and killed 3 or 5 hours later. The brains were removed and divided in half. One half of the brain was frozen in isopentane on dry ice and retained for estimates of GABA concentrations. GABA and other amino acid concentrations were estimated using the method of Wong, J. T. F., Baker, G. B. and Coutts, R. T. (1990), A rapid, sensitive assay for γ-aminobutyric acid in brain using electron-capture gas chromatography, Res. Comm. Chem. Path. Pharmacol. 70: 115-122.

[5] = system: valine, alanine and gamma-aminobutyric acid (GABA) concentrations in rat brain; assay: as above; type: in vivo; conditions: for GABA / Valine: 2 × 75 μmol/kg per os
[6] = brain, 5.75 μmol/kg, 5 hr, i.p. in 10% DMSO
[7] = brain, 150 μmol/kg, 5 hr, i.p. in 10% DMSO
[8] = brain, 2 × 75 μmol/kg per os (day 1 and day 2, killed 5 hours later)
[9] = liver, 5.75 μmol/kg, 5 hr, i.p. in 10% DMSO
[10] = liver, 2 × 75 μmol/kg per os (day 1 and day 2, killed 5 hours later)

SMILES	inhibition at 100 µM [1] [%]	inhibition at 10 µM [1] [%]	inhibition at 1 µM [1] [%]	inhibition at 0.1 µM [1] [%]	inhibition at 0.01 µM [1] [%]	% Inhibition Monoamine Oxidase-A [2, 6] [%]	% Inhibition Monoamine Oxidase-A [2, 7] [%]	% Inhibition Monoamine Oxidase-A [2, 8] [%]	% Inhibition Monoamine Oxidase-A [2, 9] [%]	% Inhibition Monoamine Oxidase-A [2, 10] [%]	inhibition at 100 µM [3] [%]	inhibition at 10 µM [3] [%]	inhibition at 1 µM [3] [%]	inhibition at 0.1 µM [3] [%]	inhibition at 0.01 µM [3] [%]	GABA [4] [µg/g]	Valine [4] [µg/g]	GABA [5] [µg/g]	Valine [5] [µg/g]	GABA concentrations [4]	other results
NNCCc1ccccc1 [phenelzine, 1-(2-phenyl) ethylhydrazine, reference compound]	100	100	98.9	62.9	6.9	9.1 ± 5.3	97.2	96.5 ± 1.2	36.4 ± 5.3	97.7 ± 0.3	100	100	90.1	18.3	6.9	773 ± 37	22.9 ± 0.4	733	24.3 ± 0.8	–	elevation of alanine levels ([5]; phenelzine): about 4 fold; brain GABA concentrations ([5]; phenelzine 150 pmol/kg (so in the source), in words): caused elevations in brain GABA concentrations
C#CCN(N)CCc1ccccc1 [CVT-P040, N^1 -propargylphenelzine]	99.5	99.1	71.1	20.6	0.7	9.1 ± 4.9	96.7 ± 0.6	96.9 ± 0.8	43.7 ± 5.4	95.4 ± 0.7	99.7	97.9	88.8	59.8	19.9	270 ± 23	22.9 ± 1.4	329 ± 43	25.4 ± 1.8	did not elevate GABA concentrations	% Inhibition Monoamine Oxidase-A ([2]; brain, 0.58 μmol/kg, 5 hr, i.p. in 10% DMSO): 7.2 ± 5.1%; % Inhibition Monoamine Oxidase-A ([2]; brain, 57.5 μmol/kg, 5 hr, i.p. in 10% DMSO): 86.6 ± 6.7%; % Inhibition Monoamine Oxidase-A ([2]; brain, 173 μmol/kg, 5 hr, i.p. in 10% DMSO): 98.4 ± 0.1%; % Inhibition Monoamine Oxidase-A ([2]; liver, 0.58 μmol/kg, 5 hr, i.p. in 10% DMSO): -6.1 ± 4.4%; % Inhibition Monoamine Oxidase-A ([2]; liver, 57.5 μmol/kg, 5 hr, i.p. in 10% DMSO): 91.7 ± 2.3%; % Inhibition Monoamine Oxidase-A ([2]; liver, 173 μmol/kg, 5 hr, i.p. in 10% DMSO): 97.7 ± 0.3%; elevation of alanine [4]: elevation of alanine was not seen
C#CCN(CCc1ccccc1)NC(C)=O [CVT-P041, N^1 -propargyl-N^2 -acetylphenelzine]	79.5	27.7	4.2	1.8	0.3	–	98.4 ± 0.0	92.9 ± 1.7	–	98.3 ± 0.2	92.7	71.3	28.8	6.2	-2	253 ± 0	20.6 ± 0.5	300 ± 22	26.4 ± 1.4	did not elevate GABA concentrations	elevation of alanine [4]: elevation of alanine was not seen
